Data taken from patent publication US20090232909A1, “Method for determining physiological effects of hemoglobin” (priority 1999, published 2009).
Entries after “also recorded” stand apart in the source; their conditions may differ.

Tested on: inside-out vesicles (IOV)
Experiment: Transnitrosylation of inside-out vesicles (IOV) by SNO-Hb
Type: biochemical
Conditions: IOVs (or source RBCs) treated before incubation with SNO-Hb
Method: RBCs derived from fresh venous blood and suspended in oxygen-purged phosphate-buffered saline (PBS) were exposed in gas-tight vials to NO, added as aliquots of oxygen-purged NO-saturated PBS to yield the specified NO:heme ratios based on spectrophotometric assessment of heme content. Exposure to NO was for 5 mins followed by rinses in PBS at 21% O2. RBCs were lysed in 10 mM MOPS, 0.1 mM DTPA, pH 7, followed by centrifugation at 20,000×g for 10 mins to produce membrane and cytosolic fractions, which were solubilized in 1% TX-100. Quantification of NO groups was by photolysis/chemiluminescence (McMahon, T. J. & Stamler, J. S., Meth. Enzymol. 301:99-114, 1999). SNO content was measured as NO removed by treating sample aliquots for 5 mins with HgCl2 at 5-fold molar excess over estimated thiol content (Gow, A. J. & Stamler, J. S., Nature 391:169-173, 1998; Gow, A. J. et al., Proc. Natl. Acad. Sci. USA 96:9027-9032, 1999; McMahon, T. J. & Stamler, J. S., Meth. Enzymol. 301:99-114, 1999). IOVs were prepared from outdated RBCs following Kondo (Kondo, T., Meth. Enzymol. 171:217-225, 1989) and stripped of peripheral membrane-bound proteins by washing for 60 mins in 0.5 M NaCl/100 mM Tris at pH 8. Chymotrypsin treatment of IOVs was for 15 mins at pH 7 and 37° C. with 5 U enzyme/mg IOV protein. For transnitrosylation, IOVs were incubated with SNO-Hb (50 nmoles SNO-Hb/mg IOV protein, about 10-fold excess over AE1) for 15 mins at pH 7 and 37° C. SNO-Hb was prepared from free or immobilized HbA (Apex) by selective S-nitrosylation of cysβ93 with S-nitroso-cysteine (Jia, L. et al., Nature 380:221-226, 1996; Stamler, J. S. et al., Science 276:2034-2037, 1997; McMahon, T. J. & Stamler, J. S., Meth. Enzymol. 301:99-114, 1999). Hb was immobilized on cyanogen bromide-activated Sepharose 4b.
Immunoprecipitation was carried out by incubation of TX-100 or NP-40 extracts with antibodies followed by protein G-Sepharose. […] Binding of SNO-Hb to IOVs was assessed in 10 mM MOPS buffer, pH 7, at room temperature and 21% O2. Incubation was for 15 mins before IOVs were solubilized in 1% TX-100, and heme content was assessed spectrophotometrically. When employed, RBCs were treated for 60 mins with DIDS (0.1 mM; calculated 10-fold molar excess over AE1), then washed thoroughly to remove unreacted DIDS. […]
IOVs incubated with SNO-Hb and washed at pH 8 to remove bound Hb incorporated about 450 pmol NO/milligram of TX-100-extracted IOV protein (FIG. 7D). […] It is important to note that SNO was not detected in extracts of IOVs exposed to NO in the absence of Hb (not shown). […] Following centrifugal separation, washes at pH 7 and solubilization in TX-100, extracts of IOVs were free of Hb as assessed by spectrophotometric detection of heme.

Compound: O=S(=O)(O)c1cc(N=C=S)ccc1C=Cc1ccc(N=C=S)cc1S(=O)(=O)O [DIDS, 4,4′-diisothiocyanatostilbene-2,2′-disulfonic acid]
- effect of prior treatment on transfer of NO groups from SNO-Hb to IOVs: reduced significantly; also recorded: greatly reduced
